# Test results taken from patent US6706740B2, “Fungicidal heterocyclic aromatic amides and their compositions, methods of use and preparation” (Dow AgroSciences LLC, priority 1999, dated 2004).
# Test system: Erysiphe graminis—ERYSGT
# Assay: Powdery Mildew of Wheat, in vivo whole plant, 24 Hour Protectant
# Settings: Erysiphe; 100 ppm spray, wheat, 24 hour protectant; control of fungal infection vs untreated plants; read-out: ERYSGT in vivo 1 Day Protectant
row,Compound,pest or weed control at 100 ppm [%]
1,CCCCCCCCCCCCC(=O)O[C@H]1[C@H](C)OC(=O)[C@@H](NC(=O)c2nccc(OC)c2O)COC(=O)[C@@H]1Cc1ccccc1 [Compound 397],< 25
2,COc1ccnc(C(=O)NC2O[C@H](CO)[C@H]3OC(C)(C)O[C@@H]23)c1O (some centres unmarked) [Compound 329],< 25
3,COc1ccnc(C(=O)Nc2ccc(Oc3cccc(C(F)(F)F)c3)cc2)c1O [Compound 424],25 to 74

# Same assay, conditions: Erysiphe; wheat plants sprayed at 100 ppm, inoculated after 24 hours; control of fungal infection vs untreated plants; read-out: ERYSGT in vivo 1 Day Protectant
row,Compound,pest or weed control at 100 ppm [%]
1,COc1ccnc(C(=O)NC2CC(C)(C)CC(C)(C#N)C2)c1OC(C)=O (centres unmarked) [Compound 574],< 25

# Test system: Mycosphaerella graminicola (Septoria tritici—SEPTTR)
# Assay: In vitro fungal growth inhibition, Mycosphaerella graminicola (SEPTTR)
# Format: cell-based
# Settings: Zymoseptoria tritici; 25 ppm in growth medium; read-out: SEPTTR in vitro Growth Inhibition
row,Compound,inhibition at 25 ppm [%]
1,CCCCCCCCCCCCC(=O)O[C@H]1[C@H](C)OC(=O)[C@@H](NC(=O)c2nccc(OC)c2O)COC(=O)[C@@H]1Cc1ccccc1 [Compound 397],< 80
2,COc1ccnc(C(=O)NC2O[C@H](CO)[C@H]3OC(C)(C)O[C@@H]23)c1O (some centres unmarked) [Compound 329],< 80
3,COc1ccnc(C(=O)Nc2ccc(Oc3cccc(C(F)(F)F)c3)cc2)c1O [Compound 424],< 80

# Same assay, conditions: Zymoseptoria tritici; 25 ppm in the growth medium; read-out: SEPTTR in vitro Growth Inhibition
row,Compound,inhibition at 25 ppm [%]
1,COc1ccnc(C(=O)NC2CC(C)(C)CC(C)(C#N)C2)c1OC(C)=O (centres unmarked) [Compound 574],< 80

# Test system: Rhizoctonia solani (RHIZSO)
# Assay: microbe, parasite or virus in culture
# Format: cell-based
# Settings: Rhizoctonia solani, read-out: RHIZSO in vitro Growth Inhibition
row,Compound,inhibition at 25 ppm [%]
1,COc1ccnc(C(=O)NC2CC(C)(C)CC(C)(C#N)C2)c1OC(C)=O (centres unmarked) [Compound 574],< 80
2,CCCCCCCCCCCCC(=O)O[C@H]1[C@H](C)OC(=O)[C@@H](NC(=O)c2nccc(OC)c2O)COC(=O)[C@@H]1Cc1ccccc1 [Compound 397],< 80
3,COc1ccnc(C(=O)NC2O[C@H](CO)[C@H]3OC(C)(C)O[C@@H]23)c1O (some centres unmarked) [Compound 329],< 80
4,COc1ccnc(C(=O)Nc2ccc(Oc3cccc(C(F)(F)F)c3)cc2)c1O [Compound 424],< 80

# Test system: Phytophthora infestans—PHYTIN
# Assay: whole plant or invertebrate
# Format: in vivo
# Settings: Phytophthora, in Solanum lycopersicum, 24 h, read-out: PHYTIN in vivo 1 Day Protectant
row,Compound,pest or weed control at 100 ppm [%]
1,COc1ccnc(C(=O)NC2CC(C)(C)CC(C)(C#N)C2)c1OC(C)=O (centres unmarked) [Compound 574],< 25
2,CCCCCCCCCCCCC(=O)O[C@H]1[C@H](C)OC(=O)[C@@H](NC(=O)c2nccc(OC)c2O)COC(=O)[C@@H]1Cc1ccccc1 [Compound 397],< 25
3,COc1ccnc(C(=O)NC2O[C@H](CO)[C@H]3OC(C)(C)O[C@@H]23)c1O (some centres unmarked) [Compound 329],< 25
4,COc1ccnc(C(=O)Nc2ccc(Oc3cccc(C(F)(F)F)c3)cc2)c1O [Compound 424],25 to 74

# Test system: Ustilago maydis (USTIMA)
# Assay: microbe, parasite or virus in culture
# Format: cell-based
# Settings: Mycosarcoma maydis, read-out: USTIMA in vitro Growth Inhibition
row,Compound,inhibition at 25 ppm [%]
1,COc1ccnc(C(=O)NC2CC(C)(C)CC(C)(C#N)C2)c1OC(C)=O (centres unmarked) [Compound 574],< 80
2,CCCCCCCCCCCCC(=O)O[C@H]1[C@H](C)OC(=O)[C@@H](NC(=O)c2nccc(OC)c2O)COC(=O)[C@@H]1Cc1ccccc1 [Compound 397],< 80
3,COc1ccnc(C(=O)NC2O[C@H](CO)[C@H]3OC(C)(C)O[C@@H]23)c1O (some centres unmarked) [Compound 329],< 80
4,COc1ccnc(C(=O)Nc2ccc(Oc3cccc(C(F)(F)F)c3)cc2)c1O [Compound 424],< 80

# Test system: Leptosphaeria nodorum—LEPTNO
# Assay: Glume Blotch of Wheat, in vivo whole plant, 24 Hour Protectant
# Settings: Leptosphaeria; 100 ppm spray, wheat, 24 hour protectant; control of fungal infection vs untreated plants; read-out: LEPTNO in vivo 1 Day Protectant
row,Compound,pest or weed control at 100 ppm [%]
1,CCCCCCCCCCCCC(=O)O[C@H]1[C@H](C)OC(=O)[C@@H](NC(=O)c2nccc(OC)c2O)COC(=O)[C@@H]1Cc1ccccc1 [Compound 397],25 to 74
2,COc1ccnc(C(=O)NC2O[C@H](CO)[C@H]3OC(C)(C)O[C@@H]23)c1O (some centres unmarked) [Compound 329],25 to 74
3,COc1ccnc(C(=O)Nc2ccc(Oc3cccc(C(F)(F)F)c3)cc2)c1O [Compound 424],25 to 74

# Same assay, conditions: Leptosphaeria; wheat plants sprayed at 100 ppm, inoculated after 24 hours; control of fungal infection vs untreated plants; read-out: LEPTNO in vivo 1 Day Protectant
row,Compound,pest or weed control at 100 ppm [%]
1,COc1ccnc(C(=O)NC2CC(C)(C)CC(C)(C#N)C2)c1OC(C)=O (centres unmarked) [Compound 574],25 to 74

# Test system: Stagonospora nodorum (Leptosphaeria nodorum—LEPTNO)
# Assay: In vitro fungal growth inhibition, Stagonospora nodorum (LEPTNO)
# Format: cell-based
# Settings: Leptosphaeria; 25 ppm in growth medium; read-out: LEPTNO in vitro Growth Inhibition
row,Compound,inhibition at 25 ppm [%]
1,CCCCCCCCCCCCC(=O)O[C@H]1[C@H](C)OC(=O)[C@@H](NC(=O)c2nccc(OC)c2O)COC(=O)[C@@H]1Cc1ccccc1 [Compound 397],< 80
2,COc1ccnc(C(=O)NC2O[C@H](CO)[C@H]3OC(C)(C)O[C@@H]23)c1O (some centres unmarked) [Compound 329],< 80
3,COc1ccnc(C(=O)Nc2ccc(Oc3cccc(C(F)(F)F)c3)cc2)c1O [Compound 424],> 80

# Same assay, conditions: Leptosphaeria; 25 ppm in the growth medium; read-out: LEPTNO in vitro Growth Inhibition
row,Compound,inhibition at 25 ppm [%]
1,COc1ccnc(C(=O)NC2CC(C)(C)CC(C)(C#N)C2)c1OC(C)=O (centres unmarked) [Compound 574],< 80

# Test system: Septoria tritici—SEPTTR
# Assay: Leaf Blotch of Wheat, in vivo whole plant, 24 Hour Protectant
# Settings: Zymoseptoria tritici, 24 h, 100 ppm spray, wheat, 24 hour protectant; control of fungal infection vs untreated plants; read-out: SEPTTR in vivo 1 Day Protectant
row,Compound,pest or weed control at 100 ppm [%]
1,CCCCCCCCCCCCC(=O)O[C@H]1[C@H](C)OC(=O)[C@@H](NC(=O)c2nccc(OC)c2O)COC(=O)[C@@H]1Cc1ccccc1 [Compound 397],25 to 74
2,COc1ccnc(C(=O)NC2O[C@H](CO)[C@H]3OC(C)(C)O[C@@H]23)c1O (some centres unmarked) [Compound 329],25 to 74
3,COc1ccnc(C(=O)Nc2ccc(Oc3cccc(C(F)(F)F)c3)cc2)c1O [Compound 424],25 to 74

# Same assay, conditions: Zymoseptoria tritici, 24 h, wheat plants sprayed at 100 ppm, inoculated after 24 hours; control of fungal infection vs untreated plants; read-out: SEPTTR in vivo 1 Day Protectant
row,Compound,pest or weed control at 100 ppm [%]
1,COc1ccnc(C(=O)NC2CC(C)(C)CC(C)(C#N)C2)c1OC(C)=O (centres unmarked) [Compound 574],25 to 74

# Test system: Puccinia recondita—PUCCRT
# Assay: Brown Rust of Wheat, in vivo whole plant, 24 Hour Protectant
# Settings: Puccinia; 100 ppm spray, wheat, 24 hour protectant; control of fungal infection vs untreated plants; read-out: PUCCRT in vivo 1 Day Protectant
row,Compound,pest or weed control at 100 ppm [%]
1,CCCCCCCCCCCCC(=O)O[C@H]1[C@H](C)OC(=O)[C@@H](NC(=O)c2nccc(OC)c2O)COC(=O)[C@@H]1Cc1ccccc1 [Compound 397],25 to 74
2,COc1ccnc(C(=O)NC2O[C@H](CO)[C@H]3OC(C)(C)O[C@@H]23)c1O (some centres unmarked) [Compound 329],25 to 74
3,COc1ccnc(C(=O)Nc2ccc(Oc3cccc(C(F)(F)F)c3)cc2)c1O [Compound 424],25 to 74

# Same assay, conditions: Puccinia; wheat plants sprayed at 100 ppm, inoculated after 24 hours; control of fungal infection vs untreated plants; read-out: PUCCRT in vivo 1 Day Protectant
row,Compound,pest or weed control at 100 ppm [%]
1,COc1ccnc(C(=O)NC2CC(C)(C)CC(C)(C#N)C2)c1OC(C)=O (centres unmarked) [Compound 574],< 25

# Test system: Phytophthora infestans (PHYTIN)
# Assay: microbe, parasite or virus in culture
# Format: cell-based
# Settings: Phytophthora infestans, read-out: PHYTIN in vitro Growth Inhibition
row,Compound,inhibition at 25 ppm [%]
1,COc1ccnc(C(=O)NC2CC(C)(C)CC(C)(C#N)C2)c1OC(C)=O (centres unmarked) [Compound 574],< 80
2,CCCCCCCCCCCCC(=O)O[C@H]1[C@H](C)OC(=O)[C@@H](NC(=O)c2nccc(OC)c2O)COC(=O)[C@@H]1Cc1ccccc1 [Compound 397],< 80
3,COc1ccnc(C(=O)NC2O[C@H](CO)[C@H]3OC(C)(C)O[C@@H]23)c1O (some centres unmarked) [Compound 329],< 80
4,COc1ccnc(C(=O)Nc2ccc(Oc3cccc(C(F)(F)F)c3)cc2)c1O [Compound 424],< 80

# Test system: Magnaporthe grisea (Pyricularia oryzae—PYRIOR)
# Assay: microbe, parasite or virus in culture
# Format: cell-based
# Settings: Pyricularia oryzae, read-out: PYRIOR in vitro Growth Inhibition
row,Compound,inhibition at 25 ppm [%]
1,COc1ccnc(C(=O)NC2CC(C)(C)CC(C)(C#N)C2)c1OC(C)=O (centres unmarked) [Compound 574],< 80
2,CCCCCCCCCCCCC(=O)O[C@H]1[C@H](C)OC(=O)[C@@H](NC(=O)c2nccc(OC)c2O)COC(=O)[C@@H]1Cc1ccccc1 [Compound 397],< 80
3,COc1ccnc(C(=O)NC2O[C@H](CO)[C@H]3OC(C)(C)O[C@@H]23)c1O (some centres unmarked) [Compound 329],< 80
4,COc1ccnc(C(=O)Nc2ccc(Oc3cccc(C(F)(F)F)c3)cc2)c1O [Compound 424],< 80
